Reference: the NIST ThermoML archive (doi:10.1021/je200790q)

Tests used:
[1] = 101.33 kPa, Liquid; for mass density: Vibrating tube method
[2] = refractive index (Na D-line) (dimensionless); details: 101.33 kPa, Liquid, Standard Abbe refractometry
[3] = molar heat capacity at constant pressure; details: 298.15 K; 101.33 kPa; Liquid; Drop calorimetry

CCn1cc[n+](C)c1.Cc1ccc(S(=O)(=O)[O-])cc1 [1-ethyl-3-methylimidazolium 4-methylbenzenesulfonate]
Details | mass density, [1] [kg/m3] | refractive index, [2] | viscosity, [1] [mPa·s]
303.15 K | 1223.4 | – | 1417.4
308.15 K | 1220 | – | 842.45
313.15 K | 1216.6 | – | 531.73
318.15 K | 1213.2 | – | 351.97
322.73 K | – | 1.53844 | –
323.15 K | 1210 | – | 242.85
325.68 K | – | 1.53757 | –
327.64 K | – | 1.53703 | –
328.15 K | 1206.8 | – | 173.69
329.61 K | – | 1.53649 | –
332.55 K | – | 1.5357 | –
333.15 K | 1203.7 | – | 128.18
334.52 K | – | 1.53509 | –
336.48 K | – | 1.53461 | –
338.15 K | 1200.6 | – | 97.21
338.44 K | – | 1.53409 | –
340.41 K | – | 1.53356 | –
342.37 K | – | 1.53304 | –
343.15 K | 1197.6 | – | 75.51
348.15 K | 1194.5 | – | 59.9
353.15 K | 1191.5 | – | 48.42
358.15 K | 1188.5 | – | 39.81
363.15 K | 1185.5 | – | 33.22

CC(=O)[O-].CCn1cc[n+](C)c1 [1-ethyl-3-methylimidazolium acetate]
Details | mass density, [1] [kg/m3] | refractive index, [2] | viscosity, [1] [mPa·s]
278.15 K | 1112.4 | – | 723.62
283.15 K | 1108.9 | – | 451.35
288.15 K | 1105.6 | – | 295.7
288.37 K | – | 1.50371 | –
293.15 K | 1102.4 | – | 202.29
293.28 K | – | 1.50233 | –
298.15 K | 1099.3 | – | 143.61
298.19 K | – | 1.50091 | –
303.1 K | – | 1.49949 | –
303.15 K | 1096.2 | – | 105.3
308.01 K | – | 1.49807 | –
308.15 K | 1093.6 | – | 79.32
312.91 K | – | 1.49666 | –
313.15 K | 1090 | – | 61.33
318.15 K | 1087 | – | 48.41
323.15 K | 1084 | – | 38.95
328.15 K | 1081 | – | 31.87
333.15 K | 1078 | – | 26.47
338.15 K | 1075 | – | 22.27
343.15 K | 1072.1 | – | 18.96
348.15 K | 1069.2 | – | 16.31
353.15 K | 1066.3 | – | 14.16
358.15 K | 1063.4 | – | 12.41
363.15 K | 1060.6 | – | 10.95

Details | molar heat capacity at constant pressure [J/K/mol]
[3] | 321.9

CCn1cc[n+](C)c1.COP(=O)([O-])OC [1-ethyl-3-methylimidazolium dimethylphosphate]
Details | mass density, [1] [kg/m3] | refractive index, [2] | viscosity, [1] [mPa·s]
298.19 K | – | 1.48175 | –
303.1 K | – | 1.4805 | –
303.15 K | 1213.9 | – | 192.68
308.01 K | – | 1.47909 | –
308.15 K | 1210.5 | – | 144.32
312.91 K | – | 1.47771 | –
313.15 K | 1207.1 | – | 110.51
317.82 K | – | 1.47636 | –
318.15 K | 1203.8 | – | 86.32
322.73 K | – | 1.47511 | –
323.15 K | 1200.5 | – | 68.64
327.64 K | – | 1.47384 | –
328.15 K | 1197.2 | – | 55.46
333.15 K | 1193.9 | – | 45.47
338.15 K | 1190.6 | – | 37.78
343.15 K | 1187.4 | – | 31.76
348.15 K | 1184.2 | – | 26.99
353.15 K | 1181 | – | 23.17
358.15 K | 1177.8 | – | 20.07
363.15 K | 1174.7 | – | 17.53

Details | molar heat capacity at constant pressure [J/K/mol]
[3] | 411.78

CCn1cc[n+](C)c1.N#CN=C=[N-] [1-ethyl-3-methylimidazolium dicyanamide]
Details | mass density, [1] [kg/m3] | refractive index, [2] | viscosity, [1] [mPa·s]
278.15 K | 1117.9 | – | 32.51
283.15 K | 1114.3 | – | 26.67
288.15 K | 1110.9 | – | 22.23
288.37 K | – | 1.51745 | –
293.15 K | 1107.4 | – | 18.79
293.28 K | – | 1.51585 | –
298.15 K | 1104 | – | 16.09
298.19 K | – | 1.51428 | –
303.1 K | – | 1.51269 | –
303.15 K | 1100.6 | – | 13.92
308.01 K | – | 1.51112 | –
308.15 K | 1097.3 | – | 12.16
312.91 K | – | 1.50956 | –
313.15 K | 1094 | – | 10.72
318.15 K | 1090.7 | – | 9.519
323.15 K | 1087.4 | – | 8.518
328.15 K | 1084.2 | – | 7.673
333.15 K | 1081 | – | 6.951
338.15 K | 1077.8 | – | 6.327
343.15 K | 1074.7 | – | 5.788
348.15 K | 1071.6 | – | 5.319
353.15 K | 1068.5 | – | 4.909
358.15 K | 1065.4 | – | 4.548
363.15 K | 1062.3 | – | 4.229

Details | molar heat capacity at constant pressure [J/K/mol]
[3] | 314.63

CCn1cc[n+](C)c1.O=S(=O)([O-])C(F)(F)F [1-ethyl-3-methylimidazolium trifluoromethanesulfonate]
Details | mass density, [1] [kg/m3] | refractive index, [2] | viscosity, [1] [mPa·s]
278.15 K | 1403.3 | – | 99.83
283.15 K | 1398.9 | – | 78.93
288.15 K | 1394.5 | – | 63.51
288.37 K | – | 1.43572 | –
293.15 K | 1390.2 | – | 51.87
293.28 K | – | 1.43432 | –
298.15 K | 1385.9 | – | 42.94
298.19 K | – | 1.43296 | –
303.1 K | – | 1.43159 | –
303.15 K | 1381.6 | – | 35.98
308.01 K | – | 1.43025 | –
308.15 K | 1377.3 | – | 30.48
312.91 K | – | 1.42886 | –
313.15 K | 1373.1 | – | 26.09
318.15 K | 1368.9 | – | 22.53
323.15 K | 1364.8 | – | 19.62
328.15 K | 1360.6 | – | 17.21
333.15 K | 1356.5 | – | 15.21
338.15 K | 1352.5 | – | 13.52
343.15 K | 1348.4 | – | 12.1
348.15 K | 1344.4 | – | 10.88
353.15 K | 1340.4 | – | 9.845
358.15 K | 1336.4 | – | 8.948
363.15 K | 1332.5 | – | 8.169

Details | molar heat capacity at constant pressure [J/K/mol]
[3] | 362.8

CCn1cc[n+](C)c1.N#C[S-] [1-ethyl-3-methylimidazolium thiocyanate]
Details | mass density, [1] [kg/m3] | refractive index, [2] | viscosity, [1] [mPa·s]
278.15 K | 1129.7 | – | 54.57
283.15 K | 1126.5 | – | 43.51
288.15 K | 1123.3 | – | 35.36
293.15 K | 1120.1 | – | 29.21
298.15 K | 1117 | – | 24.5
303.15 K | 1113.9 | – | 20.79
308.15 K | 1110.8 | – | 17.86
313.15 K | 1107.8 | – | 15.49
318.15 K | 1104.8 | – | 13.56
323.15 K | 1101.8 | – | 11.97
328.15 K | 1098.8 | – | 10.64
332.55 K | – | 1.53909 | –
333.15 K | 1095.9 | – | 9.528
334.52 K | – | 1.5385 | –
336.48 K | – | 1.53794 | –
338.15 K | 1093 | – | 8.582
338.44 K | – | 1.53739 | –
340.41 K | – | 1.53682 | –
342.37 K | – | 1.53636 | –
343.15 K | 1090.1 | – | 7.773
348.15 K | 1087.2 | – | 7.076
353.15 K | 1084.3 | – | 6.472
358.15 K | 1081.5 | – | 5.945
363.15 K | 1078.7 | – | 5.485

Details | molar heat capacity at constant pressure [J/K/mol]
[3] | 281.45

CCn1cc[n+](C)c1.CO[PH](=O)[O-] [1-ethyl-3-methylimidazolium methyl phosphonate]
Details | mass density, [1] [kg/m3] | refractive index, [2] | viscosity, [1] [mPa·s]
278.15 K | 1222.2 | – | 916.06
283.15 K | 1218.6 | – | 598.79
288.15 K | 1215.1 | – | 406.82
288.37 K | – | 1.49534 | –
293.15 K | 1211.7 | – | 285.8
293.28 K | – | 1.4939 | –
298.15 K | 1208.3 | – | 206.76
298.19 K | – | 1.49249 | –
303.1 K | – | 1.49115 | –
303.15 K | 1205 | – | 153.63
308.01 K | – | 1.48982 | –
308.15 K | 1201.8 | – | 116.89
312.91 K | – | 1.48854 | –
313.15 K | 1198.6 | – | 90.83
317.82 K | – | 1.48714 | –
318.15 K | 1195.5 | – | 71.92
323.15 K | 1192.3 | – | 57.94
328.15 K | 1189.2 | – | 47.38
333.15 K | 1186.1 | – | 39.29
338.15 K | 1183 | – | 32.99
343.15 K | 1179.9 | – | 28.02
348.15 K | 1176.9 | – | 24.05
353.15 K | 1173.9 | – | 20.83
358.15 K | 1170.9 | – | 18.2
363.15 K | 1167.9 | – | 16.03

Details | molar heat capacity at constant pressure [J/K/mol]
[3] | 354.63

CCn1cc[n+](C)c1.CS(=O)(=O)[O-] [1-ethyl-3-methylimidazolium methanesulfonate]
Details | mass density, [1] [kg/m3] | refractive index, [2] | viscosity, [1] [mPa·s]
278.15 K | 1257.1 | – | 805.33
283.15 K | 1253.3 | – | 505.92
288.15 K | 1249.5 | – | 336.04
288.37 K | – | 1.49823 | –
293.15 K | 1245.9 | – | 232.44
293.28 K | – | 1.49682 | –
298.15 K | 1242.4 | – | 166.59
298.19 K | – | 1.49542 | –
303.1 K | – | 1.49399 | –
303.15 K | 1239 | – | 123.14
308.01 K | – | 1.49254 | –
308.15 K | 1235.6 | – | 93.48
312.91 K | – | 1.49114 | –
313.15 K | 1232.2 | – | 72.64
318.15 K | 1228.8 | – | 57.62
323.15 K | 1225.5 | – | 46.54
328.15 K | 1222.2 | – | 38.2
333.15 K | 1218.9 | – | 31.81
338.15 K | 1215.6 | – | 26.84
343.15 K | 1212.3 | – | 22.9
348.15 K | 1209.1 | – | 19.75
353.15 K | 1205.9 | – | 17.19
358.15 K | 1202.8 | – | 15.08
363.15 K | 1199.7 | – | 13.33

Details | molar heat capacity at constant pressure [J/K/mol]
[3] | 345.52
